Measured values reported in patent US12208118B2, “Pharmaceutical compositions for delivery of peptide” (ANYA BIOPHARM INC., priority 2017, dated 2025).

How the values were obtained:
[1] = biological target: T1, Porcine Aminopeptidase M (Sus scrofa, UniProt P15145); assay: Oxidative inactivation of Aminopeptidase by combinations of metal salts and reducing agents (enzymatic activity); format: biochemical; settings: compared with original activity, in % (unit assumed)
T1 sequence (P15145 1-963): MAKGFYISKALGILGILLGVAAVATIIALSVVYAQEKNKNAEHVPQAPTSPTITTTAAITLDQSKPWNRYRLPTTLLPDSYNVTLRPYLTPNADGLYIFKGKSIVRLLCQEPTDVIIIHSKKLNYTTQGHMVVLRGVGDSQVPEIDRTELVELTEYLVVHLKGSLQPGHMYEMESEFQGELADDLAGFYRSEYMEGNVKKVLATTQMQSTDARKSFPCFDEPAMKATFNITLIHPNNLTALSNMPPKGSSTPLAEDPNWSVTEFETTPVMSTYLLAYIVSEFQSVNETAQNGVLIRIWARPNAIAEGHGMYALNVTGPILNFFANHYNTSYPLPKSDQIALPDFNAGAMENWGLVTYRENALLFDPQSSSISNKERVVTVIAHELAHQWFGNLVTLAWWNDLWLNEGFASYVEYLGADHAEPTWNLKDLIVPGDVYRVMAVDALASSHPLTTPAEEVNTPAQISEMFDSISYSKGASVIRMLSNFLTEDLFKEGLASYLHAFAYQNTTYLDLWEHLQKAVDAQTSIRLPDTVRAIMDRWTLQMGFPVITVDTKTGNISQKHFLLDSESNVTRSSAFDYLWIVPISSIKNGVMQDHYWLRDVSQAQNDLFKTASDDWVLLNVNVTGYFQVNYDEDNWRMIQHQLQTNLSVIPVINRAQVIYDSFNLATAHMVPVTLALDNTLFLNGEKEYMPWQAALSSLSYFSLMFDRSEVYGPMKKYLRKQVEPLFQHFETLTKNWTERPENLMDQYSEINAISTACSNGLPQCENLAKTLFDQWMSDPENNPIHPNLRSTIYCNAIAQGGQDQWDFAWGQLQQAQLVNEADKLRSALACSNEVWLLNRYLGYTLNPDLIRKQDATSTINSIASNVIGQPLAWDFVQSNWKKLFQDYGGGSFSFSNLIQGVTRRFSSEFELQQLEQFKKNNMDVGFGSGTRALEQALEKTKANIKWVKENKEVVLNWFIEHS
Method: (§1) Enzyme Activity Assay: The assay of enzymatic activity of each enzyme in the presence of its specific substrate was performed at a particular wavelength by using UV spectrophotometer, and it served as a negative control. The enzyme activity was calculated as: […]
(§2) Enzyme Inhibition Assay: Incubation was performed with inhibitor of each enzyme, which served as a positive control.
(§3) Incubation with metal ion(s) and reducing agent(s): Incubation of enzymes with combination of metal salt(s) and reducing agent(s) in microtitre 96 well plate was done for a specific period of time in presence of substrates to examine their oxidative inactivation. Inactivation of enzyme in presence of metal ion(s) and reducing agent(s) was compared with the original enzyme activity in the presence of substrate as a negative control and in the presence of inhibitor as a positive control.
To Assay the Enzymatic Activity of Aminopeptidase M Using L-Leucine-p-Nitroanilide
1 mM Tricine solution (Prepared in 100 ml deionized water, Reagent A) and 50 mM L-Leucine-p-nitroanilide solution in absolute methanol (Reagent B) were prepared, separately. […] Reagent G, Reagent E and Reagent F were mixed immediately by inversion to prepare test and blank solution as directed in table 12, and the increase in ΔA405 nm was recorded for approximately 5 minutes. ΔA405 nm/minute was obtained using maximum linear rate for both the Test and blank solution. […]
(§4) For a 200 μl reaction mixture, about 10 μl Aminopeptidase was incubated in buffer with the combination of metal salts and reducing agents (provided in Table 2 at serial number 1 through 31) at respective concentration at 37° C. in 96 well microtitre plates (Table 3 hereinabove provides details on utilization of a particular combination from those provided at serial number 1 through 31 in Table 2) for 5 min, 15 min and 30 min followed by the addition of respective 90 μl substrate (provided in Table 1A). The enzyme activity was measured spectrophotometrically in a microplate reader, and was compared with original activity assay. […]

[2] = biological target: T2, Human Carboxypeptidase B (Homo sapiens, UniProt P15086); assay: Oxidative inactivation of Carboxypeptidase by combinations of metal salts and reducing agents (enzymatic activity); format: biochemical; settings: reducing agent 1 mM, metal salt 5 μM, compared with original activity, in % (unit assumed)
T2 sequence (P15086 111-417): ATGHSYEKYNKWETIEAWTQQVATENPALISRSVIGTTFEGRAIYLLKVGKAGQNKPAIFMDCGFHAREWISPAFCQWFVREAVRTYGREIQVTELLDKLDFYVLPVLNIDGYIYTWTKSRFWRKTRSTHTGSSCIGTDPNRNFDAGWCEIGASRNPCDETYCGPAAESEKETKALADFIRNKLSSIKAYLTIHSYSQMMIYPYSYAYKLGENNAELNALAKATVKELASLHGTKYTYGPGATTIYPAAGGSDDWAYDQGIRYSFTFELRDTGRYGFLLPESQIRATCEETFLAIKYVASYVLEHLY
Method: as §1, §2, §3
Assay for Enzymatic Activity of Carboxypeptidase B Using Hippuryl-Arginine
4 units of Carboxypeptidase B in cold deionized water, 1 mm Hippuryl-Arginine solution in 25 mM Iris Buffer solution containing 100 mM Sodium Chloride (pH 7.65) were prepared, separately at about 25° C. 3 ml reaction mixtures (Test and blank) were prepared using above prepared solutions according to Table 9 at 25° C. […]
as §4, with “Carboxypeptidase” for “Aminopeptidase”, “assay. The pH was measured by Hanna Combination pH electrode (reaction with enzyme was performed in triplicates).” for “assay.”

[3] = system: STZ induced diabetic S.D. rats; assay: Glucose level in STZ induced diabetic rats after different formulations (Glucometer, % inhibition); format: in vivo; settings: glucose by Glucometer
Method: (§5) Quantification of Glucose & Insulin Glargine Level in STZ Induced Diabetic Rat Plasma
(§6) Glucose & insulin glargine levels in plasma were quantified after dosing several formulations of insulin glargine to mid-jejunum in STZ induced diabetic S.D. rats.
(§7) Test formulation I: Insulin glargine (Lantus®)—Appearance: Solution for injection in a prefilled pen; Concentration: 100 IU/ml; Storage condition: 2-8° C.; Dose: 0.2 U/kg; Route: SC.
(§8) Test formulation II: Insulin glargine Formulation—MIRA 1 (Reduced glutathione/Chromium Picolinate of Table 15A)+Permeation Enhancer 1 (PA 1 of Table 16A) (oral solution in TRIS buffer)—Dose: 1.7 U/animal; Route: mid-jejunum
(§9) Test formulation III: Insulin glargine Formulation—PA 2 (of Table 16B) and MIRA 2 (Ascorbate Sodium/Vanadium Oxide of Table 15B) (oral solution in TRIS buffer)—Dose: 1.7 U/animal; Route: mid-jejunum.
The clinical signs observed are normal. With respect to sampling time points, during dosing, the blood collection time points was at 0, 20, 40, 60, 120 and 150 minutes post dose. ˜100 μl of blood was collected in a pre-filled Na-EDTA eppendorf, from retro-orbital sinus puncture. Blood was centrifuged at 5000 rpm, 5 min, 4° c. to obtain plasma. Glucose was measured immediately after blood collection using Glucometer.

[4] = Quantification of insulin glargine level in STZ induced diabetic rat plasma (Glargine ELISA), bioavailability; format: in vivo, S.D. rats; settings: following subcutaneous and mid-jejunum administration, rats
Method: as §5, §6, §7, §8, §9
The clinical signs observed are normal. […] Glucose was measured immediately after blood collection using Glucometer. […]
Principle: This Glargine ELISA is a two-site immunoassay, employing a monoclonal antibody immobilised on microtitre wells and a soluble antibody labelled with horseradish peroxidase (HRP). […] The intensity of the colour developed in each well is quantified in a microtitre plate reader set to record transmitted light at a wavelength of 450 nm (Kit Protocol: Used manufacturer recommended protocol Cat. No. MBS495369) […]

Compound	Enzymatic activity of Aminopeptidase ([1]; Time 5 min incubation at 37° C.)	Enzymatic activity of Aminopeptidase ([1]; Time 15 min incubation at 37° C.)	Enzymatic activity of Aminopeptidase ([1]; Time 30 min incubation at 37° C.)	Enzymatic activity of Carboxypeptidase ([2]; incubation 5 min at 37° C.)	Enzymatic activity of Carboxypeptidase ([2]; incubation 15 min at 37° C.)	Enzymatic activity of Carboxypeptidase ([2]; incubation 30 min at 37° C.)	% inhibition ([3]; 20 min post dose)	% inhibition ([3]; 40 min post dose)	% inhibition ([3]; 60 min post dose)	% inhibition ([3]; 120 min post dose)	% inhibition ([3]; 150 min post dose)	clinical signs [4]	mortality [4]
O=C(/C=C/C=C/c1ccc2c(c1)OCO2)N1CCCCC1 [Piperine]	108	100.4	80.52	104.5	91.7	62.26	–	–	–	–	–	–	–
Insulin glargine	–	–	–	–	–	–	22.9%	25.5%	22%	39%	17.2%	normal	no mortality observed
